The subject of data set [1] is Zone of skin. Briefly: Upregulation of SOD 1 gene expression in human epidermal full thickness skin cultures at 1 % after 24 hrs by qPCR analysis relative to control. The class given is functional. In general terms: Real-time PCR tracks product formation cycle by cycle.
Data set [2] has as its system Zone of skin. Briefly: Upregulation of IGF 1 gene expression in human epidermal full thickness skin cultures at 1 % after 24 hrs by qPCR analysis relative to control. The class given is functional.
Data set [3] has as its system Zone of skin. Briefly: Upregulation of NGF gene expression in human epidermal full thickness skin cultures at 1 % after 24 hrs by qPCR analysis relative to control. The class given is functional.
The test system of data set [4] is Zone of skin. Briefly: Upregulation of SIRT-1 gene expression in human epidermal full thickness skin cultures at 1 % after 24 hrs by real time PCR analysis relative to control. The class given is functional.
Data set [5] has as its system Zone of skin. Description: Upregulation of TIMP 2 gene expression in human epidermal full thickness skin cultures at 1 % after 24 hrs by real time PCR analysis relative to control. The class given is functional.
A further data set deals with NHDF. Briefly: Upregulation of SIRT-1 gene expression in NHDF by real time RT-PCR analysis relative to control. The class given is functional, Homo sapiens.
Data set [6] deals with Zone of skin. Briefly: Upregulation of LAMB 1 gene expression in human epidermal full thickness skin cultures at 1 % after 24 hrs by qPCR analysis relative to control. The class given is functional.
The subject of data set [7] is Zone of skin. Description: Upregulation of LOX gene expression in human epidermal full thickness skin cultures at 1 % after 24 hrs by qPCR analysis relative to control. The class given is functional.
Data set [8] concerns Zone of skin. Briefly: Toxicity in human epidermal full thickness skin cultures assessed as intact and healthy fibroblasts at 1 % after 24 hrs by hematoxylin/eosin staining based assay.
The test system of data set [9] is Zone of skin. Briefly: Upregulation of type IV collagen alpha 2 gene expression in human epidermal full thickness skin cultures at 1 % after 24 hrs by real time PCR analysis relative to control. The class given is functional.
Data set [10] deals with Zone of skin. Description: Upregulation of HBEGF gene expression in human epidermal full thickness skin cultures at 1 % after 24 hrs by qPCR analysis relative to control. The class given is functional.
The test system of data set [11] is Zone of skin. Briefly: Upregulation of MT2A gene expression in human epidermal full thickness skin cultures at 1 % after 24 hrs by qPCR analysis relative to control. The class given is functional.
Data set [12] deals with Zone of skin. Briefly: Upregulation of TGF gene expression in human epidermal full thickness skin cultures at 1 % after 24 hrs by qPCR analysis relative to control. The format is functional.
In data set [13] the test system is Zone of skin. Briefly: Upregulation of MT1H gene expression in human epidermal full thickness skin cultures at 1 % after 24 hrs by qPCR analysis relative to control. The class given is functional.
The test system of data set [14] is Zone of skin. Briefly: Upregulation of FBN 1 gene expression in human epidermal full thickness skin cultures at 1 % after 24 hrs by qPCR analysis relative to control. The class given is functional.
In data set [15] the test system is Zone of skin. Briefly: Upregulation of elastin gene expression in human epidermal full thickness skin cultures at 1 % after 24 hrs by real time PCR analysis relative to control. The format is functional.
Data set [16] relates to Zone of skin. Description: Toxicity in human epidermal full thickness skin cultures assessed as intact and healthy stratum corneum at 1 % after 24 hrs by hematoxylin/eosin staining based assay.
In data set [17] the test system is Zone of skin. Description: Upregulation of SOD 2 gene expression in human epidermal full thickness skin cultures at 1 % after 24 hrs by qPCR analysis relative to control. The format is functional.
Data set [18] has as its system Zone of skin. Briefly: Upregulation of PCNA gene expression in human epidermal full thickness skin cultures at 1 % after 24 hrs by qPCR analysis relative to control. The class given is functional.
Data set [19] relates to Zone of skin. Briefly: Upregulation of procollagen type III gene expression in human epidermal full thickness skin cultures at 1 % after 24 hrs by real time PCR analysis relative to control. The format is functional.
Data set [20] relates to Zone of skin. Briefly: Upregulation of type IV collagen alpha 1 gene expression in human epidermal full thickness skin cultures at 1 % after 24 hrs by real time PCR analysis relative to control. The format is functional.
In data set [21] the test system is Zone of skin. Description: Upregulation of catalase gene expression in human epidermal full thickness skin cultures at 1 % after 24 hrs by qPCR analysis relative to control. The class given is functional.
Data set [22] concerns Zone of skin. Description: Upregulation of TIMP 1 gene expression in human epidermal full thickness skin cultures at 1 % after 24 hrs by real time PCR analysis relative to control. The format is functional.
For data set [23], the system named is Zone of skin. Description: Toxicity in human epidermal full thickness skin cultures assessed as intact and healthy keratinocytes at 1 % after 24 hrs by hematoxylin/eosin staining based assay.
The nature of data set [24]: Lipophilicity, log P of the compound. Particulars: octanol/water.

By logP is commonly meant a log measure of how a compound divides between an organic and an aqueous phase. Read a low logP as lower lipophilicity.

Turning to `CC(=O)Oc1ccc(/C=C/c2cc(O)cc(O)c2)cc1`, the Activity in the data set with Zone of skin [1] came to 160%; in the data set on Zone of skin [2], 264%; with Zone of skin [3] it was 672%; with Zone of skin [4] it was 335%; with Zone of skin [5] it was 130%; in the data set with Zone of skin [6], 140%. Also, the Activity in the data set on Zone of skin [7] was 190%; in the data set with Zone of skin [8] it was “Non-toxic”; with Zone of skin [9], 180%; in the data set on Zone of skin [10], 190%; in the data set with Zone of skin [11], 340%; in the data set on Zone of skin [12], 200%. The Activity in the data set on Zone of skin [13] is listed as 6400%; in the data set on Zone of skin [14], 130%; in the data set on Zone of skin [15], 280%; in the data set with Zone of skin [16] it was “Non-toxic”; in the data set with Zone of skin [17], 170%; in the data set on Zone of skin [18], 540%. Also, the Activity in the data set with Zone of skin [19] is reported as 220%; in the data set with Zone of skin [20] it was 170%; with Zone of skin [21] it was 160%; in the data set with Zone of skin [22], 250%; in the data set on Zone of skin [23], “Non-toxic”. In the data set with NHDF, the “fold change (FC)” value was greater than 3.3.

Turning to `Oc1ccc(/C=C/c2cc(O)cc(O)c2)cc1` [RESVERATROL], the “fold change (FC)” value with Zone of skin [4] stood at 1.8. In the data set on Zone of skin [15], this compound came in with an Activity of 180%. For the same compound, the logP in [24] was determined as 3.1.

For the origin of these results see ChEMBL document CHEMBL3813606, “Synthesis and skin gene analysis of 4'-acetoxy-resveratrol (4AR), therapeutic potential for dermal applications” (Bioorg Med Chem Lett, 2016).
